We go through 1 compound from paper PMC10035904, “Synthesis of novel sulphamethoxazole derivatives and exploration of their anticancer and antimicrobial properties” (PLOS ONE, 2023).

Values after ≈ are worked out from the molar mass of the structure shown.

The test system of series [1] is Human foreskin fibroblasts (HF) CRL-4001. As to the kind of experiment: MTT cell viability assay, fibroblasts HF. Conditions: Fibroblast, 72 hours of incubation, n = 3, read-out: EC50 against HF. In kind it is cell-based. How it is done: The human clear cell renal cell carcinoma line (CaKi-1) was obtained from American Type Culture Collection (ATCC, Manassas, VA). The human prostate carcinoma cell line PPC-1 was originally obtained from ATCC and kindly provided by Prof. Tambet Teesalu (University of Tartu, Estonia). Human foreskin fibroblasts (HF) CRL-4001 were originally obtained from ATCC and kindly provided by Prof. Helder Santos (University of Helsinki, Finland). Cells were cultured in Dulbecco’s Modified Eagle’s GlutaMAX medium (Gibco (Carlsbad, CA, USA) supplemented with 10,000 U/mL penicillin, 10 mg/mL streptomycin (Gibco), and 10% fetal bovine serum (Gibco). During cell passaging, Tryple Express reagent (Gibco) was used for cell detachment. Cell cultures were grown at 37°C in a humidified atmosphere containing 5% CO2. They were used until the passage of 20.
The effect of synthesized compounds on cell viability was studied using 3-(4,5-dimethylthiazol-2-yl)-2,5-diphenyltetrazolium bromide (MTT; Sigma-Aldrich Co., St Louis, MO, USA) assay, as described elsewhere. […] The absorbance was measured at 570 and 630 nm using a multi-detection microplate reader. The compound effect on cell viability was calculated using a formula (1): Relativecellviability%=A−A0/ANC−A0 (1) Where: […]
(In general: Tetrazolium dyes change colour on reduction, which living cells bring about.)

Series [2] has as its system Pseudomonas aeruginosa ATCC 27853. The series can be described thus: Serial broth dilution in liquid medium, P. aeruginosa. The class given is cell-based. Conditions: ATCC27853, Mueller-Hinton broth, 24 hours, n = 3. The method, then: (§1) Antibacterial and antifungal susceptibility to the compound 16b was tested using a serial broth dilution technique in Mueller-Hinton broth II (BBL, Cockeysville, USA), as described elsewhere. All procedures were done in aseptic conditions. Standard bacterial and fungal cultures were used: Staphylococcus aureus ATCC 25923, Staphylococcus epidermidis ATCC 12228, Escherichia coli ATCC 25922, Enterococcus faecalis ATCC 29212, Klebsiella pneumoniae ATCC 33499, Pseudomonas aeruginosa ATCC 27853, Proteus mirabilis ATCC 12459, Bacillus cereus ATCC 8035, and Candida albicans ATCC 60193. Standard cultures of nonsporic bacteria S. aureus, S. epidermidis, E. coli, E. faecalis, K. pneumoniae, P. aeruginosa and P. mirabilis were cultivated for 20–24 hours at 37°C in Mueller-Hinton Agar (BBL, Cockeysville, USA). A bacterial suspension was prepared from cultivated bacterial cultures in physiological solution according to turbidity standard 0.5 McFarland. Standard culture of sporic bacteria B. cereus was cultivated for 7 days at 37°C in Mueller-Hinton II Agar. […] Then the absorbance was measured at 600 nm using a multi-detection microplate reader. […]
Background: Dilution methods test growth across graded concentrations, often in twofold steps.

Series [3] concerns Proteus mirabilis ATCC 12459. The series can be described thus: Serial broth dilution in liquid medium, P. mirabilis. The class given is cell-based. As to conditions: ATCC12459, Mueller-Hinton broth, 24 hours, n = 3. How it is done:
as §1

Series [4] concerns Bacillus cereus ATCC 8035. As to the kind of experiment: Serial broth dilution in liquid medium, B. cereus. Conditions: Mueller-Hinton broth, 24 hours; result in words. In kind it is cell-based. The method, then: as §1
For series [5], the system named is Escherichia coli ATCC 25922. As to the kind of experiment: Serial dilution on solid agar, E. coli. Conditions: ATCC25922, solid Mueller-Hinton agar, 24 hours. In kind it is cell-based. The method, then: (§2) Antimicrobial activity of compound 16b on solid agar was tested using the same microbial cultures, and the same suspension preparation procedure, as described in above section. All procedures were done in aseptic conditions.
(§3) Mueller-Hinton agar was boiled and kept at to 37 °C during the whole procedure. Compound 16b solution was prepared in DMSO right before experiment. The Agar was mixed with compound solution at different ratios to make the final compound concentrations of 1 mM, 400 μM, 200 μM and 100 μM. Then 10 ml of prepared solution was poured into sterile Petri dishes (85 mm in diameter) and kept in aseptic conditions while the agar solidified. The agar with 0.5% of DMSO served as a negative control. With the help of loop standard microbial cultures by 0.1 ml were poured on the surface of prepared agar with investigative compound. Then Petri dishes were kept for 24 hours in thermostatic conditions.
(§4) The minimal dilution, i.e. the lowest concentration in μg/mL of the investigative and comparison compounds that inhibited visible growth of microorganisms was the minimal inhibitory concentration (MIC).

In series [6] the test system is Klebsiella pneumoniae ATCC 33499. The series can be described thus: Serial dilution on solid agar, K. pneumoniae. In kind it is cell-based. Conditions: ATCC33499, solid Mueller-Hinton agar, 24 hours. How it is done: as §2, §3, §4
The test system of series [7] is Pseudomonas aeruginosa ATCC 27853. The series can be described thus: Serial dilution on solid agar, P. aeruginosa. In kind it is cell-based. Conditions: ATCC27853, solid Mueller-Hinton agar, 24 hours. The method, then:
as §2, §3, §4

As for `Cc1cc(NS(=O)(=O)c2ccc(NCCC(=O)NN=Cc3ccc([N+](=O)[O-])o3)cc2)no1` [Compound 16b, N-(5-methylisoxazol-3-yl)-4-((3-(2-((5-nitrofuran-2-yl)methylene)hydrazineyl)-3-oxopropyl)amino)-benzenesulfonamide], the melting point (in general, the temperature of the solid-liquid transition) fell in the range of 221 to 222 °C. The EC50 (in general, the midpoint of the concentration-response curve) in series [1] is 9.5 ± 2.7 µM. Further, the EC50 in series [2] was above 100 µM. This compound also came in with an EC50 in series [3] above 100 µM. In addition, the “sensitivity of B. cereus in liquid medium” value in series [4] is recorded as “most sensitive”. For the same compound, in series [5], 400 µM (≈ 185 µg/mL) was the least that counted as inhibitory (MIC). Moreover, the MIC – broadly, the lowest concentration found to suppress growth – in series [6] is 1000 µM (≈ 462 µg/mL). In addition, in series [7], the MIC is above 1000 µM.
